According to patent US10533015B1, “Opioid receptor antagonist prodrugs” (Nirsum Laboratories, Inc., priority 2019, dated 2020):
Converted amounts (≈) assume the structure as drawn. Read-outs that look alike come from different tables or passages of the source.

What was measured:
[1] = Plasma stability assay, rat plasma; format: in vitro ADME; details: 10 μM, 37° C.
Outline: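 Percentage of parent remaining was followed by HPLC-MS in duplicate, over 0–1440 min for rat and 0–120 min for dog, monkey and human plasma (2 μM, 1% solvent, 37 °C).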

[2] = physchem; details: thermodynamic from solid; for solubility at 24 h: 25 °C, obs. temp. 25 °C; for solubility at 24 h / solubility: heating temp. 60 °C; for solubility: obs. temp. 40 °C
[3] = Plasma stability assay, dog plasma; format: in vitro ADME; details: 2 μM, 37° C.
Procedure: (§1) Plasma stability determination of the test compounds in rat, dog, cynomolgus monkey and human plasma is performed using HPLC-MS. For rat, incubations are carried out in 96-well polypropylene plates in 5 aliquots of 70 μL each (one for each time point). […] Five time points are analyzed (0, 15, 120, 480 and 1440 min). […] All incubations are performed in duplicates. The samples are analyzed by HPLC-MS. The percentage of parent compound remaining after incubation in plasma is determined.

[4] = Plasma stability assay, monkey plasma; format: in vitro ADME, cynomolgus monkey; details: 2 μM, 37° C.
Procedure: as §1

[5] = Plasma stability assay, human plasma; format: in vitro ADME; details: 2 μM, 37° C.
Procedure: as §1

[6] = Liver S9 fraction stability, dog; format: in vitro ADME; details: dog liver S9, 1.0 mg/ml S9 protein, 2 μM, 37° C.
Procedure: (§2) Liver S9 fraction stability determination of the test compounds in dog, cynomolgus monkey and human is performed using HPLC-MS. Test compound (2 μM, 0.1% DMSO, 1% Methanol final concentration) was assessed for stability in a 50 μl phosphate buffer containing 1.0 mg/ml S9 protein from each of the three species and 5 mM D-saccharic acid-1, 4-lactone. Samples were incubated at 37° C. for 60 minutes and the % compound remaining was assessed.

[7] = Liver S9 fraction stability, monkey; format: in vitro ADME, cynomolgus monkey; details: monkey liver S9, 1.0 mg/ml S9 protein, 2 μM, 37° C.
Procedure: as §2

[8] = Liver S9 fraction stability, human; format: in vitro ADME; details: human liver S9, 1.0 mg/ml S9 protein, 2 μM, 37° C.
Procedure: as §2

[9] = for Approximate Solubility (mg/mL) in Excipient: Cottonseed oil / Approximate Solubility (mg/mL) in Excipient: Ethanol / Approximate Solubility (mg/mL) in Excipient: Sesame oil: heating temp. 60 °C
[10] = Polymorph screening of solid state drug substances; details: for Dry method and appearance: after stirring 50 °C 72 hours, dried solid; for XRPD results (Dried): dried solid after 50 °C 72 hours; for Visual observation 50° C. / Visual observation RT: target conc. 100 mg/ml

With `C=C1CC[C@@]2(O)C3Cc4ccc(OC(=O)CCCCCCCCCCC)c5c4[C@@]2(CCN3CC2CC2)[C@H]1O5` [Compound 59, (4aS,7aS,12bS)-3-(cyclopropylmethyl)-4a-hydroxy-7-methylene-2,3,4,4a,5,6,7,7a-octahydro-1H-4,12-methanobenzofuro[3,2-e]isoquinolin-9-yl dodecanoate, reference compound] the “% remaining at time point” value ([1]; 0 min) was 100%, the “% remaining at time point” value ([1]; 15 min) was 5.9% and the “% remaining at time point” value ([1]; 120 min) was 0.7%. The “% remaining at time point” value ([1]; 480 min) was 0.2%, the “% remaining at time point” value ([1]; 1440 min) was 0% and the solubility at 24 h ([2]; oil or lipid, Approximate Solubility (mg/mL) in Excipient: Cottonseed oil, Cottonseed oil) was > 414 mg/mL. For the same compound, the solubility at 24 h ([2]; oil or lipid, Approximate Solubility (mg/mL) in Excipient: Sesame oil, Sesame oil) was > 393 mg/mL and the solubility thermodynamic ([2]; 40 °C, water) was < 0.001 mg/mL.
With `CCCCCCCCCCCC(=O)OCN1C(=O)CCc2ccc(OCCCCN3CCN(c4cccc(Cl)c4Cl)CC3)cc21` [Aripiprazole Lauroxil, reference compound] the “% remaining at time point” value ([1]; 0 min) was 100%, the “% remaining at time point” value ([1]; 15 min) was 84% and the “% remaining at time point” value ([1]; 120 min) was 85.5%. For the same compound, the “% remaining at time point” value ([1]; 480 min) was 76.4%, the “% remaining at time point” value ([1]; 1440 min) was 46% and the “% remaining at time point” value ([3]; 0 min) was 100%. For the same compound, the “% remaining at time point” value ([3]; 15 min (head)) was 103%, the “% remaining at time point” value ([3]; 120 min (head)) was 81.3% and the “% remaining at time point” value ([3]; 480 min (head)) was 78.6%. The “% remaining at time point” value ([3]; 1440 min (head)) was 74.3%, the “% remaining at time point” value ([4]; 0 min) was 100% and the “% remaining at time point” value ([4]; 15 min (head)) was 95.2%. The “% remaining at time point” value ([4]; 120 min (head)) was 94.5%, the “% remaining at time point” value ([4]; 480 min (head)) was 75.5% and the “% remaining at time point” value ([4]; 1440 min (head)) was 83.2%. For the same compound, the “% remaining at time point” value ([5]; 0 min) was 100%, the “% remaining at time point” value ([5]; 15 min (head)) was 99.7% and the “% remaining at time point” value ([5]; 120 min (head)) was 80%. For the same compound, the “% remaining at time point” value ([5]; 480 min (head)) was 73.2%, the “% remaining at time point” value ([5]; 1440 min (head)) was 75.5% and the “% remaining at 60 minutes” value [6] was 66.1%. The “% remaining at 60 minutes” value [7] was 56.6% and the “% remaining at 60 minutes” value [8] was 47.8%.
With `CCCCCCCCCCCCCCCC(=O)Oc1ccc2c3c1O[C@H]1C(=O)CC[C@@]4(O)C(C2)N(CC2CC2)CC[C@]314` [Compound 55, (4aS,7aR,12bS)-3-(cyclopropylmethyl)-4a-hydroxy-7-oxo-2,3,4,4a,5,6,7,7a-octahydro-1H-4,12-methanobenzofuro[3,2-e]isoquinolin-9-yl palmitate] the “% remaining at time point” value ([1]; 0 min) was 100%, the “% remaining at time point” value ([1]; 15 min) was 77.3% and the “% remaining at time point” value ([1]; 120 min) was 47.2%. The “% remaining at time point” value ([1]; 480 min) was 27.1%, the “% remaining at time point” value ([1]; 1440 min) was 15.6% and the “Approximate Solubility (mg/mL) in Excipient: Cottonseed oil” value (“Approximate Solubility … Cottonseed oil” below) ([9]; obs. temp. 25 °C) was <50 mg/mL. The “Approximate Solubility … Cottonseed oil” value ([9]; obs. temp. 40 °C) was >400.1 mg/mL, the “Approximate Solubility (mg/mL) in Excipient: Ethanol” value ([9]; obs. temp. 40 °C) was >401.1 mg/mL and the “Approximate Solubility (mg/mL) in Excipient: Sesame oil” value (shortened to “Approximate Solubility … Sesame oil”) ([9]; obs. temp. 25 °C) was <50 mg/mL. For the same compound, the “Approximate Solubility … Sesame oil” value ([9]; obs. temp. 40 °C) was >394.8 mg/mL, the “Equilibrium solubility (mg/mL) Water” value ([9]; Water, compound after slurry in EtOAc, temperatures N/A) was <0.0005 mg/mL and the “Dry method and appearance” value ([10]; Acetone) was “Evaporation/white powder”. The “XRPD results (Dried)” value ([10]; Acetone) was “Pattern B”, the “Visual observation 50° C.” value ([10]; Acetone) was “Clear” and the “Visual observation RT” value ([10]; Acetone) was “Slurry”. The “Dry method and appearance” value ([10]; EtOAc) was “Evaporation/white powder”, the “XRPD results (Dried)” value ([10]; EtOAc) was “Pattern B” and the “Visual observation 50° C.” value ([10]; EtOAc) was “Clear”. The “Visual observation RT” value ([10]; EtOAc) was “Slurry”, the “Dry method and appearance” value ([10]; Heptane) was “Evaporation/white powder” and the “XRPD results (Dried)” value ([10]; Heptane) was “Pattern B”. The “Visual observation 50° C.” value ([10]; Heptane) was “Clear”, the “Visual observation RT” value ([10]; Heptane) was “Slurry” and the “Dry method and appearance” value ([10]; Isopropanol) was “Evaporation/white powder”. The “XRPD results (Dried)” value ([10]; Isopropanol) was “Pattern B”, the “Visual observation 50° C.” value ([10]; Isopropanol) was “Clear” and the “Visual observation RT” value ([10]; Isopropanol) was “Slurry”. For the same compound, the “Dry method and appearance” value ([10]; MTBE) was “Evaporation/white powder”, the “XRPD results (Dried)” value ([10]; MTBE) was “Pattern B” and the “Visual observation 50° C.” value ([10]; MTBE) was “Clear”. The “Visual observation RT” value ([10]; MTBE) was “Clear”.
In the case of `CCCCCCCCCCCCCCCC(=O)OC1CCCn2c1nc(C)c(CCN1CCC(c3noc4cc(F)ccc34)CC1)c2=O` (stereo not drawn) [Paliperidone palmitate, reference compound], the “% remaining at time point” value ([3]; 0 min) is reported as 100%, the “% remaining at time point” value ([3]; 15 min (head)) is reported as 91.2% and the “% remaining at time point” value ([3]; 120 min (head)) is reported as 88.4%. The “% remaining at time point” value ([3]; 480 min (head)) was 95.9%, the “% remaining at time point” value ([3]; 1440 min (head)) was 93.1% and the “% remaining at time point” value ([4]; 0 min) was 100%. For the same compound, the “% remaining at time point” value ([4]; 15 min (head)) was 92%, the “% remaining at time point” value ([4]; 120 min (head)) was 89.5% and the “% remaining at time point” value ([4]; 480 min (head)) was 98.4%. The “% remaining at time point” value ([4]; 1440 min (head)) was 92.5%, the “% remaining at time point” value ([5]; 0 min) was 100% and the “% remaining at time point” value ([5]; 15 min (head)) was 103.7%. The “% remaining at time point” value ([5]; 120 min (head)) was 97.6%, the “% remaining at time point” value ([5]; 480 min (head)) was 109.1% and the “% remaining at time point” value ([5]; 1440 min (head)) was 104.1%. The “% remaining at 60 minutes” value [6] was 56.4%, the “% remaining at 60 minutes” value [7] was 57.4% and the “% remaining at 60 minutes” value [8] was 47.8%.
With `CCCCCCCCCCCCCCCCOC(=O)Oc1ccc2c3c1O[C@H]1C(=O)CC[C@@]4(O)C(C2)N(CC2CC2)CC[C@]314` [Compound 21, (4aS,7aR,12bS)-3-(cyclopropylmethyl)-4a-hydroxy-7-oxo-2,3,4,4a,5,6,7,7a-octahydro-1H-4,12-methanobenzofuro[3,2-e]isoquinolin-9-yl hexadecyl carbonate] the “% remaining at time point” value ([1]; 0 min) was 100%, the “% remaining at time point” value ([1]; 15 min) was 73.5% and the “% remaining at time point” value ([1]; 120 min) was 68.3%. The “% remaining at time point” value ([1]; 480 min) was 59.8%, the “% remaining at time point” value ([1]; 1440 min) was 40.9% and the “Approximate Solubility … Cottonseed oil” value ([9]; obs. temp. 40 °C) was 101 to 134.8 mg/mL. For the same compound, the “Approximate Solubility (mg/mL) in Excipient: Ethanol” value ([9]; obs. temp. 40 °C) was 50 to 100 mg/mL, the “Approximate Solubility … Sesame oil” value ([9]; obs. temp. 40 °C) was 101 to 134.5 mg/mL and the “Dry method and appearance” value ([10]; Acetone) was “Evaporation/white powder”. The “XRPD results (Dried)” value ([10]; Acetone) was “Pattern A”, the “Visual observation 50° C.” value ([10]; Acetone) was “Clear” and the “Visual observation RT” value ([10]; Acetone) was “Slurry”. For the same compound, the “Dry method and appearance” value ([10]; EtOAc) was “Evaporation/white powder”, the “XRPD results (Dried)” value ([10]; EtOAc) was “Pattern A” and the “Visual observation 50° C.” value ([10]; EtOAc) was “Clear”. For the same compound, the “Visual observation RT” value ([10]; EtOAc) was “Slurry”, the “Dry method and appearance” value ([10]; Heptane) was “Evaporation/white powder” and the “XRPD results (Dried)” value ([10]; Heptane) was “Pattern A”. For the same compound, the “Visual observation 50° C.” value ([10]; Heptane) was “Clear”, the “Visual observation RT” value ([10]; Heptane) was “Slurry” and the “Dry method and appearance” value ([10]; Isopropanol) was “Evaporation/white powder”. For the same compound, the “XRPD results (Dried)” value ([10]; Isopropanol) was “Pattern A”, the “Visual observation 50° C.” value ([10]; Isopropanol) was “Clear” and the “Visual observation RT” value ([10]; Isopropanol) was “Slurry”. For the same compound, the “Dry method and appearance” value ([10]; MTBE) was “Evaporation/white powder”, the “XRPD results (Dried)” value ([10]; MTBE) was “Pattern A” and the “Visual observation 50° C.” value ([10]; MTBE) was “Clear”. The “Visual observation RT” value ([10]; MTBE) was “Clear”.
In the case of `C=C1CC[C@@]2(O)[C@H]3Cc4ccc(O)c5c4[C@@]2(CCN3CC2CC2)[C@H]1O5` [nalmefene, 17-cyclopropylmethyl-4,5α-epoxy-6-methylenemorphinan-3,14-diol], the solubility ([2]; 40 °C, oil or lipid, Approximate Solubility (mg/mL) in Excipient: Cottonseed oil, Cottonseed oil) is reported as < 25 mg/mL, the solubility ([2]; 40 °C, oil or lipid, Approximate Solubility (mg/mL) in Excipient: Sesame oil, Sesame oil) is reported as < 25.5 mg/mL and the solubility ([2]; 40 °C, organic solvent or mixture, Approximate Solubility (mg/mL) in Excipient: Ethanol, Ethanol) is reported as 102 to 137 mg/mL (≈ 300 to 404 mM).
